Assay results from PubChem BioAssay (NCI).
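Exposure lasted 48 hours, with cells grown in 96-well plates and compounds tested at five concentrations. Definition used: TGI = concentration required for complete inhibition of growth.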

Columns and labels:
Assay in all cases: DTP human tumour cell line panel, 48 h
BT-549 breast = tested on: BT-549 breast
SW-620 colon = tested on: SW-620 colon
SK-MEL-5 melanoma = tested on: SK-MEL-5 melanoma
K-562 leukemia = tested on: K-562 leukemia
HCT-116 colon = tested on: HCT-116 colon
HOP-92 NSCLC = tested on: HOP-92 NSCLC
HCC-2998 colon = tested on: HCC-2998 colon
SK-OV-3 ovarian = tested on: SK-OV-3 ovarian
MDA-N = tested on: MDA-N
RPMI-8226 leukemia = tested on: RPMI-8226 leukemia
MOLT-4 leukemia = tested on: MOLT-4 leukemia
T-47D breast = tested on: T-47D breast
NCI/ADR-RES ovarian = tested on: NCI/ADR-RES ovarian
M14 melanoma = tested on: M14 melanoma
OVCAR-4 ovarian = tested on: OVCAR-4 ovarian
SN12C renal = tested on: SN12C renal
MDA-MB-435 = tested on: MDA-MB-435
A498 renal = tested on: A498 renal
786-0 renal = tested on: 786-0 renal
HT29 colon = tested on: HT29 colon
OVCAR-5 ovarian = tested on: OVCAR-5 ovarian
U251 CNS = tested on: U251 CNS
SK-MEL-2 melanoma = tested on: SK-MEL-2 melanoma
SF-539 CNS = tested on: SF-539 CNS
NCI-H522 lung = tested on: NCI-H522 lung
SF-268 CNS = tested on: SF-268 CNS
IGROV1 ovarian = tested on: IGROV1 ovarian
ACHN renal = tested on: ACHN renal
HCT-15 colon = tested on: HCT-15 colon
SF-295 CNS = tested on: SF-295 CNS
SR leukemia = tested on: SR leukemia
NCI-H460 lung = tested on: NCI-H460 lung
PC-3 prostate = tested on: PC-3 prostate
SK-MEL-28 melanoma = tested on: SK-MEL-28 melanoma
OVCAR-8 ovarian = tested on: OVCAR-8 ovarian
SNB-19 CNS = tested on: SNB-19 CNS
LOX IMVI melanoma = tested on: LOX IMVI melanoma
NCI-H226 lung = tested on: NCI-H226 lung
MCF7 breast = tested on: MCF7 breast
COLO 205 colon = tested on: COLO 205 colon
UO-31 renal = tested on: UO-31 renal
TK-10 renal = tested on: TK-10 renal
MDA-MB-231 breast = tested on: MDA-MB-231 breast
RXF 393 renal = tested on: RXF 393 renal
KM12 colon = tested on: KM12 colon
EKVX NSCLC = tested on: EKVX NSCLC
DU-145 prostate = tested on: DU-145 prostate
OVCAR-3 ovarian = tested on: OVCAR-3 ovarian
MALME-3M melanoma = tested on: MALME-3M melanoma
NCI-H23 lung = tested on: NCI-H23 lung
HOP-62 NSCLC = tested on: HOP-62 NSCLC
UACC-62 melanoma = tested on: UACC-62 melanoma
A549 NSCLC = tested on: A549 NSCLC
HS 578T breast = tested on: HS 578T breast
SNB-75 CNS = tested on: SNB-75 CNS
HL-60(TB) leukemia = tested on: HL-60(TB) leukemia
UACC-257 melanoma = tested on: UACC-257 melanoma
CAKI-1 renal = tested on: CAKI-1 renal

Measured: TGI

CC(=O)OC1C(O)COC(O[C@H]2CC[C@]34C[C@]35CC[C@]3(C)C([C@@]6(C)CC[C@@H](C(C)(C)O)O6)[C@@H](O)C[C@@]3(C)C5C[C@H](OC3OCC(O)C(O)C3O)[C@H]4C2(C)C)C1OC1OCC(O)C(O)C1O (stereo partly drawn)
> 100 µM: BT-549 breast | SW-620 colon | SK-MEL-5 melanoma | K-562 leukemia | HCT-116 colon | HOP-92 NSCLC | HCC-2998 colon | SK-OV-3 ovarian | MDA-N | RPMI-8226 leukemia | MOLT-4 leukemia | T-47D breast | NCI/ADR-RES ovarian | M14 melanoma | OVCAR-4 ovarian | SN12C renal | MDA-MB-435 | A498 renal | 786-0 renal | HT29 colon | OVCAR-5 ovarian | U251 CNS | SK-MEL-2 melanoma | SF-539 CNS | NCI-H522 lung | SF-268 CNS | IGROV1 ovarian | ACHN renal | HCT-15 colon | SF-295 CNS | SR leukemia | NCI-H460 lung | PC-3 prostate | SK-MEL-28 melanoma | OVCAR-8 ovarian | SNB-19 CNS | LOX IMVI melanoma | NCI-H226 lung | MCF7 breast | COLO 205 colon | UO-31 renal | TK-10 renal | MDA-MB-231 breast | RXF 393 renal | KM12 colon | EKVX NSCLC | DU-145 prostate | OVCAR-3 ovarian | MALME-3M melanoma | NCI-H23 lung | HOP-62 NSCLC | UACC-62 melanoma | A549 NSCLC | HS 578T breast | SNB-75 CNS | HL-60(TB) leukemia | UACC-257 melanoma | CAKI-1 renal
